Calls of active or inactive are those of the source. For most assays here, no stated cut-off is given here; in the data, actives have a measured EC50 and inactives only a lower limit.

The target of assay [1] is T1, Rac GTPase-activating protein 1 (Homo sapiens, UniProt Q9H0H5).
T1 sequence (Q9H0H5 whole entry): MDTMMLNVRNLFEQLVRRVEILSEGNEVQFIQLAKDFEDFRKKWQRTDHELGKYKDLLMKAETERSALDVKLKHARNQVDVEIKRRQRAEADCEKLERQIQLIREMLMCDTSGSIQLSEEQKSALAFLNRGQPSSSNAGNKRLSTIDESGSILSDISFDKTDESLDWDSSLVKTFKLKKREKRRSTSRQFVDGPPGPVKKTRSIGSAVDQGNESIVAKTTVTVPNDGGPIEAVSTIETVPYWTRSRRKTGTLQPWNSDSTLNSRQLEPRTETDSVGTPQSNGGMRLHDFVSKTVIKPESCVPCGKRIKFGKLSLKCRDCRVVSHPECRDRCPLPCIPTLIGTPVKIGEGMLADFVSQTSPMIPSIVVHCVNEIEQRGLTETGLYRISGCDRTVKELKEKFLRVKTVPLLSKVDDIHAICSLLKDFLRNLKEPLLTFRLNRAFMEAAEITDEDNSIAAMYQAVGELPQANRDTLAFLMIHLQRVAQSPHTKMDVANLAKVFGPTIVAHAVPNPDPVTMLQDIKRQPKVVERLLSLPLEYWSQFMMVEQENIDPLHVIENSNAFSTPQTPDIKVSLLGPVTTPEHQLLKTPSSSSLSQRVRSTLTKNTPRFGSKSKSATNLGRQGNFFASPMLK
The assay can be described thus: blockers of MgcRacGAP-driven Rac1 GTP hydrolysis – biochemical, ADP Hunter fluorescence, primary and confirmatory, confirmation (AID 624330). It is filed as functional.

The target in assay [2] is T2, Heat shock factor protein 1 (Mus musculus, UniProt P38532).
T2 sequence (P38532 whole entry): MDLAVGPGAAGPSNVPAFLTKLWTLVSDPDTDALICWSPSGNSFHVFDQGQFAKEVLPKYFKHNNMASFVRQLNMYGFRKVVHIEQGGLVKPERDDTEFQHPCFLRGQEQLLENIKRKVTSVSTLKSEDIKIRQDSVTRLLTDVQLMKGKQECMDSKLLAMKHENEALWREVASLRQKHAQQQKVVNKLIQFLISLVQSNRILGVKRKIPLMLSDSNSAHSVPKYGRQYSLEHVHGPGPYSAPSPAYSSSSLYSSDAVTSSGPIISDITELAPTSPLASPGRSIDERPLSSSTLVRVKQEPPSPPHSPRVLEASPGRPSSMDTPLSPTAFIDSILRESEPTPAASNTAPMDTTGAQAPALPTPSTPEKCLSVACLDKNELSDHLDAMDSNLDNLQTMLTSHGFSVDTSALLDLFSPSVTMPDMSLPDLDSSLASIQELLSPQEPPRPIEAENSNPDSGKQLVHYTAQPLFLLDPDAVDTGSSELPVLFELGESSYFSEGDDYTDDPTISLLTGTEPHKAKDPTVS
The experiment in a line: decrease of HSF1-responsive luciferase luminescence – cell-based, NIH3T3, dose retest, confirmation (AID 2382).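 Further: NIH3T3 fibroblasts with HSF1-driven luciferase reporter stressed by proteasome inhibitor MG132; luminescence from HSF1-driven luciferase expression after 8 hours of MG132 stress.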 It counts as functional.

Assay [3] is described as follows: NIH3T3 cell viability loss – ATP luminescence, mouse fibroblasts, counter-screen, dose response (AID 2010).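 Further: cells exposed to compound for about 90 hours before reading.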 It is filed as functional, cell-based.
A short description of assay [4]: Trypanosoma cruzi growth suppression in host cells – NIH3T3 host cells, beta-gal luminescence, confirmation (AID 2044).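 Further: intracellular parasites grown in NIH/3T3 mouse fibroblasts as host cells; luminescent beta-galactosidase reporter signal from transgenic T. cruzi replicating inside host cells; inhibitors lower the luminescence signal.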 It is filed as functional, cell-based.
The next assay relates to Streptococcus. The assay can be described thus: GAS UMAA2166 growth inhibition – luminescence, BacTiterGlo, counter-screen for streptokinase expression inhibitor project, dose response (AID 1915).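 Further: potency for reduction of bacterial viability or growth.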 It counts as functional, organism-based. On the technique in general: Counterscreens check selectivity or assay interference.
The target of a further assay is T3, Streptokinase A (Streptococcus pyogenes serotype M1, UniProt P10520).
T3 sequence (P10520 whole entry): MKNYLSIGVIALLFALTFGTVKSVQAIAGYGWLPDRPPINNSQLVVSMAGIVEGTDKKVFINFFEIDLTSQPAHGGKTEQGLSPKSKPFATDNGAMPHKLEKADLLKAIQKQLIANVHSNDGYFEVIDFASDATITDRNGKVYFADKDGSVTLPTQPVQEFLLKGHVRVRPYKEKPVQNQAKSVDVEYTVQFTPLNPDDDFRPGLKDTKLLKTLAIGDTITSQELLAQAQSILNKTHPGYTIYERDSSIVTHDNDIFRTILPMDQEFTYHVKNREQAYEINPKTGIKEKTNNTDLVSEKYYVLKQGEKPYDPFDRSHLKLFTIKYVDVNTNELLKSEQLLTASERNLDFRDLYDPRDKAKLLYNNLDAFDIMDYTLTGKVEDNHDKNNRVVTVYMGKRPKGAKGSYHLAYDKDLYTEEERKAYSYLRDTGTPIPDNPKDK
The experiment in a line: viability-normalized secreted streptokinase activity reduction – plasminogen activation absorbance, OD405, dose response (AID 1914).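 Further: secreted streptokinase activity via plasminogen activation per viability signal from cell pellet.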 It is filed as functional, Streptococcus pyogenes M1 GAS.

The test system of assay [5] is Streptococcus sp. 'group A'. The assay can be described thus: Streptococcus pyogenes SK(-)GAS viability under kanamycin – luminescence, BacTiterGlo, confirmation, counter-screen for streptokinase expression inhibitor project, dose response (AID 1900). It counts as functional, organism-based.
The next assay addresses Cytochrome P450 2C9 (Homo sapiens, UniProt P11712).

Chain of Cytochrome P450 2C9 (P11712 whole entry): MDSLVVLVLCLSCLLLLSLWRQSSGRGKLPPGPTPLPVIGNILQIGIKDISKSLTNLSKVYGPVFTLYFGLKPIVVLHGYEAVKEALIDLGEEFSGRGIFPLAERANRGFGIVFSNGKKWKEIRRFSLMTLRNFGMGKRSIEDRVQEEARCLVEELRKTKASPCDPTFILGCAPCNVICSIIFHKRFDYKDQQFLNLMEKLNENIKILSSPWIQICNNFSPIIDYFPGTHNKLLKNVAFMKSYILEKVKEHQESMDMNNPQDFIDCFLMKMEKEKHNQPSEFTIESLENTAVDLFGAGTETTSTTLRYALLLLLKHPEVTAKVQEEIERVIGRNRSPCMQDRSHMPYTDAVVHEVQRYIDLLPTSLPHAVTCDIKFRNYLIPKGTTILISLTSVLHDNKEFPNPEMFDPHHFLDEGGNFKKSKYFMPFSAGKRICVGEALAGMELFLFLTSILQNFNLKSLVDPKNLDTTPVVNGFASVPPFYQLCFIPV

The term IC50 denotes the concentration needed to halve the response being measured. Turning to `Cc1ccc(CN2CCN(Cc3ccco3)CC2)cc1`, in assay [1], the half-maximal inhibitory concentration (IC50) was 72.7 µM (active).

What is called EC50 is the midpoint of the concentration-response curve. For `CCOC(=O)N1CCC(NC(=O)CN2C(=O)CSc3nc(C)cc(C)c32)CC1`, in assay [2], the half-maximal effective concentration (EC50) is given as > 195 µM (not active).

Take `CCn1c2ccccc2n2c(=O)c(=O)n(CC(=O)Nc3ccc(C(C)C)cc3)nc12`: the half-maximal effective concentration (EC50) in assay [2] is reported as > 195 µM (not active).

As to `COc1ccc(C2C(Oc3ccccc3)C(=O)N2c2cc(C)ccc2C)cc1OC` (stereo not given), the EC50 is > 60 µM (not active) in assay [3] and 2.24 µM (active) in assay [4].

Take `O=C(C1CCCN(S(=O)(=O)Cc2ccccc2)C1)N1CCc2ccccc21` (stereo not given): the EC50 in assay [2] was > 195 µM (not active).

Regarding `COC(=O)[C@@]12CCCCN1[C@H](c1ccc(-c3cccc(Cl)c3)c(OC)c1)[C@@H]1C(=O)N(C)C(=O)[C@@H]12`, the EC50 in assay [3] is > 60 µM (not active); in assay [4], 2.48 µM (active).

Consider `CCOC(=O)c1ccc(Cl)c(NC(=O)c2cccnc2)c1`, for which the EC50 in assay [2] was 30.8 µM (active).

In the case of `Fc1ccc(-c2cc(-c3ccccc3)nc(-n3cccn3)n2)cc1`, the EC50 in assay [2] is > 195 µM (not active).

On to `Clc1cc(Cl)c(OCCCCn2cncn2)c(Cl)c1`, for which the IC50 in assay [1] was 156 µM (active).

Turning to `Cc1ccsc1/C=C(\C(=O)c1ccc(OC(C)C)cc1)c1nc2ccccc2o1`, the EC50 in assay [3] is > 60 µM (inconclusive); in assay [4] it was 1.69 µM (active).

With `COc1ccc(NC(=O)C(NC(=O)CNC(C)=O)c2ccc(C)cc2)cc1` (stereo not given), the EC50 in assay [2] was > 195 µM (not active).

For the molecule `O=C1c2cccc3c(Nc4ccccc4Cl)c([N+](=O)[O-])cc(c23)C(=O)N1CCO`, the results for the EC50 in assay [3] and in assay [4] were > 60 µM (not active) and 0.519 µM (active), respectively.

Regarding `Nc1nc(CSc2ncn(-c3ccccc3)n2)cs1`, in assay [2], the EC50 is > 195 µM (not active).

`Cc1ccc(/C=C(\NC(=O)c2ccccc2)C(=O)N2CCCC2C(=O)O)cc1` (stereo not given): in assay [2], the EC50 is > 195 µM (not active).

As to `COc1ccc(S(=O)(=O)N2CCN=C2SCc2cccc(C)c2)cc1`, the results for the EC50 (in the assay with Streptococcus; on Streptokinase A; in assay [5]) were > 150 µM (not active), 46.6 µM (inconclusive) and > 150 µM (not active), respectively.

For `CC1CC(C)CN(c2ccc(C(=O)NCc3ccc4c(c3)OCO4)cc2[N+](=O)[O-])C1` (stereo not given), the results for the concentration for a half-maximal effect (EC50) in assay [3] and in assay [4] were > 60 µM (not active) and 1.1 µM (active), respectively.

By AC50 is commonly meant the concentration giving half of the maximal activity seen. Take `NC(=O)CSc1nc2sc(-c3ccccc3)cc2c(=O)n1N`: the concentration at half-maximal activity (AC50) at Cytochrome P450 2C9 was 3.55 µM (inconclusive).

`c1ccn2c(SCc3ccc4c(c3)OCO4)nnc2c1`: the 50% effective concentration (EC50) in assay [2] was > 195 µM (not active).

As for `O=C(Nc1ccccc1)NC1CC2CCC(C1)N2` (stereo not given), in assay [2], the EC50 is recorded as > 195 µM (not active).

`COCCCNCCOc1ccc(C(C)(C)c2ccccc2)cc1`: the EC50 in assay [3] was 7.83 µM (active); in assay [4] it was 0.611 µM (active).

In the case of `COc1ccc(Oc2nc(-c3ccccn3)ncc2OC)cc1`, the EC50 (in the assay on Streptococcus; on Streptokinase A; in assay [5]) was > 150 µM (not active) in each case.

Regarding `CSc1ccc(CNc2ccc(C)c(C)c2)cc1`, the half-maximal activity concentration (AC50) on Cytochrome P450 2C9 is 14.1 µM (inconclusive).

For the molecule `COC(=O)CCNC(=O)c1ccc2nc(Cc3ccc(OC)cc3)oc2c1`, in assay [2], the EC50 was > 195 µM (not active).

With `COc1cccc(CN2CCC(n3nccc3NC(=O)CCCc3ccccc3)CC2)c1O`, the half-maximal effective concentration (EC50) in assay [2] is on record as > 195 µM (not active).

Take `CC(C)C1Cc2c(sc3[nH]c(=S)n(Cc4ccccc4)c(=O)c23)CO1` (stereo not given): the EC50 in the assay on Streptococcus was 33.4 µM (active); on Streptokinase A, > 150 µM (not active); in assay [5] it was 2.15 µM (active).

In the case of `CCc1ccc(OCC(=O)NC(N=C(S)Nc2ccccc2C)C(Cl)(Cl)Cl)cc1` (stereo not given), the 50% effective concentration (EC50) in assay [3] was > 60 µM (not active); in assay [4], 3.62 µM (active).

In the case of `CC(OC(=O)c1ccc(NC(=O)CC#N)cc1)C(=O)NC(=O)NC1CCCCC1` (stereo not given), the EC50 was > 150 µM (not active) in the assay on Streptococcus, > 150 µM (not active) at Streptokinase A and 57.5 µM (active) in assay [5].

In the case of `Cc1ccc(/C=C/C2=NN(Cc3ccc(Cl)c(Cl)c3)C(=O)CC2)cc1`, the concentration for a half-maximal effect (EC50) with Streptococcus is 50.6 µM (active); at Streptokinase A it was 24.3 µM (active); in assay [5] it was 17.2 µM (active).

As to `Cc1ccc(CNC(=O)CSc2nc3c(sc4ccccc43)c(=O)n2CCCN2CCCC2)cc1`, the results for the EC50 in assay [3] and in assay [4] were 32.5 µM (active) and 1.5 µM (active), respectively.

Take `Cc1ccccc1CN1CCN(C(=O)CC(C)C)CC1`: the concentration giving a half-maximal response (EC50) in assay [2] is > 195 µM (not active).

Regarding `COc1ccc(C(=O)NCC(=O)OCCCOC(=O)CNC(=O)c2ccc(OC)c(OC)c2)cc1OC`, the EC50 (in the assay with Streptococcus; at Streptokinase A; in assay [5]) was > 150 µM (not active) each time.

In the case of `CC(C)Cc1ccc(CN2CCCC(NC(=O)c3cnc4ccccn4c3=O)C2)cc1` (stereo not given), the concentration giving a half-maximal response (EC50) was 26.7 µM (active) in assay [3] and 0.131 µM (active) in assay [4].

For `COc1ccc(NC2CCCN(C(=O)c3cccc(N(C)C)c3)C2)cc1` (stereo not given), the IC50 in assay [1] was 84.9 µM (active).

With `O=C(Nc1ccc(N2CCCC2)c(Cl)c1)c1ccc2c(c1)OCCO2`, the EC50 is > 30 µM (not active) in assay [3] and 0.555 µM (active) in assay [4].

As for `Cc1cc(OCC(=O)Nc2sc3c(c2C#N)CC(C)(C)NC3(C)C)c(C(C)C)cc1Cl`, the EC50 in assay [2] is > 195 µM (not active).

As for `NNC(=O)c1nn(-c2ccc(Cl)cc2)cc1O`, the 50% effective concentration (EC50) in assay [2] was 27 µM (active).

Turning to `O=C(Nc1ccc2[nH]c(-c3cccnc3)nc2c1)c1ccccc1F`, the EC50 in assay [2] is > 195 µM (not active).

Consider `COc1cc(/C=C/CN2CCC(Oc3ccc(C(=O)N4CCCC4)cc3)CC2)ccc1O`, for which the IC50 in assay [1] is 81.2 µM (active).

On to `CCc1ccc(NC(=O)CNCc2ccc(OC)c(OC)c2)cc1`, for which, in assay [1], the IC50 is 131 µM (active).

For `Cc1ccc(NC(=S)N=Nc2c(O)[nH]c3ccccc23)cc1`, the half-maximal effective concentration (EC50) in assay [3] is 4.31 µM (active); in the assay with Streptococcus it was 6.61 µM (active); on Streptokinase A it was > 150 µM (not active); in assay [4], 2.17 µM (active); in assay [5], 1.22 µM (active).

In the case of `COc1cc(/C=C/C(=O)OCC(=O)c2ccc[nH]2)ccc1O`, in assay [1], the concentration for half-maximal inhibition (IC50) is 32.2 µM (active).

Consider `COc1cc(/C=N\NC(=O)c2ccc(Cn3cc(Br)c([N+](=O)[O-])n3)o2)cc(OC)c1O`, for which the figures for the EC50 (in the assay with Streptococcus; in assay [5]) were 4.9 µM (active) and 2.67 µM (active), respectively.

Regarding `Cc1cc(C)c(/N=C2\SCC(=O)N2Cc2ccco2)c(C)c1`, in assay [2], the EC50 was > 195 µM (not active).

`CCOC(=O)C1=C(Nc2ccccc2)CC(C)(O)C(C(=O)OCC)C1c1ccccc1` (stereo not given): the EC50 in assay [3] and in assay [4] was > 60 µM (not active) each time.

Turning to `CCCCNC(=O)C(=O)N/N=C/c1ccc(C(=O)OC)cc1`, the EC50 in assay [2] is given as > 195 µM (not active).

In the case of `C[C@H]1COc2c(C3(N)CC3)c(F)cc3c(=O)c(C(=O)O)cn1c23` [PAZUFLOXACIN], the EC50 in the assay on Streptococcus is 6.74 µM (active); in assay [5] it was 7.22 µM (active).
